# According to publication PMC11912224, “A general approach for activity-based protein profiling of oxidoreductases with redox-differentiated diarylhalonium warheads” (Chemical Science, 2025):
# Assays:
# [1] = target: T1, ALDH2 (aldehyde dehydrogenase 2, recombinant human) (Homo sapiens, UniProt P05091); test: activity-based labelling, in-gel fluorescence; assay type: binding; details: covalent; 30 uM probe, 1 h
# T1 construct: recombinant
# T1 sequence (P05091 18-517): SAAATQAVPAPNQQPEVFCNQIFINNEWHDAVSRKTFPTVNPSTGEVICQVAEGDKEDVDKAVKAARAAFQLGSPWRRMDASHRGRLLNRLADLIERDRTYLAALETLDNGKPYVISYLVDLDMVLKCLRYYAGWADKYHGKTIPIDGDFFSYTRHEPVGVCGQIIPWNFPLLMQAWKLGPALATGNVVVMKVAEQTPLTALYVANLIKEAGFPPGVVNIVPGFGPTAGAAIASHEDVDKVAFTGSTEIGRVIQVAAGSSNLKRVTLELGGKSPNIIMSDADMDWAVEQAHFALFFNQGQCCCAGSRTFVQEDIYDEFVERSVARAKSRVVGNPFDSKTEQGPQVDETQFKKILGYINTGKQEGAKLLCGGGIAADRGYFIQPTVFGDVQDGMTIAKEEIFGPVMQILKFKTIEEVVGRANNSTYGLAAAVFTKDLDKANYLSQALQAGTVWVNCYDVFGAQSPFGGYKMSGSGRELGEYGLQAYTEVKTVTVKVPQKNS
# [2] = target: T2, CYP27A1 (sterol-26-hydroxylase) (Mus musculus, UniProt Q9DBG1); test: covalent labelling, streptavidin enrichment, LC-MS/MS; details: 30 uM probe, 1 h, mouse liver pieces
# T2 construct: native, in intact mouse liver pieces
# T2 sequence (Q9DBG1 33-533): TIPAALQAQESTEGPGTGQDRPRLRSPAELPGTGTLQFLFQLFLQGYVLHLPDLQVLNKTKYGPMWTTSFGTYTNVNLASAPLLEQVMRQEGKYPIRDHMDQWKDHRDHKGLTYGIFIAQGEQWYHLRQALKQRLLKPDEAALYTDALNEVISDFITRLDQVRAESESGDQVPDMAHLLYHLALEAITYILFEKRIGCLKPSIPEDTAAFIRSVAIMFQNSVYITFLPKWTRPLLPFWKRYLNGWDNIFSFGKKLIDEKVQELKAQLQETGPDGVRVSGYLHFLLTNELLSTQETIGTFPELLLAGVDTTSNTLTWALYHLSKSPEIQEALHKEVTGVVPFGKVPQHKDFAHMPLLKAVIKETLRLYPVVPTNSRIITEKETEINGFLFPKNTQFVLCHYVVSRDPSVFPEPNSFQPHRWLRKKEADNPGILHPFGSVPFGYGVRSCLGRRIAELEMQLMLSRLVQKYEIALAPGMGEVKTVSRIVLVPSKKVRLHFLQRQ
# EUOX (eugenol oxidase) = target: T3, EUOX (eugenol oxidase) (Rhodococcus jostii, UniProt Q0SBK1); test: activity-based labelling, in-gel fluorescence; assay type: binding; details: covalent; 30 uM probe, 1 h
# T3 construct: gene RHA1_ro03282; recombinant; FAD enzyme; details not in main text
# T3 sequence (Q0SBK1 1-526): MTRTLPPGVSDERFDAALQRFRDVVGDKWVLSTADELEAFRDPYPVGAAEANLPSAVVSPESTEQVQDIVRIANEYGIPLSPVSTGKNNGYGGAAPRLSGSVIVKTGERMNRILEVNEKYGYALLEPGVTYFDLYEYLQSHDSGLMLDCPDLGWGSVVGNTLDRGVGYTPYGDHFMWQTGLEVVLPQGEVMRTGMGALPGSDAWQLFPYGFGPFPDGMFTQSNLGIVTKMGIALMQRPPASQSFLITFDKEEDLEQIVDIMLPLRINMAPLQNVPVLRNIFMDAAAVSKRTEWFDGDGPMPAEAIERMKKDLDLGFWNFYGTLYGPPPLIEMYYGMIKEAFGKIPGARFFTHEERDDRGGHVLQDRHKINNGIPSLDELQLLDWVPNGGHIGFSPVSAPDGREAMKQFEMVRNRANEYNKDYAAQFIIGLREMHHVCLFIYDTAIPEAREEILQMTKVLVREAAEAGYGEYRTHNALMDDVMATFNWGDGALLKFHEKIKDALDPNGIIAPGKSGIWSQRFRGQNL
# [3] = target: T4, retinol dehydrogenase RDH16 (Mus musculus, UniProt O54909); test: covalent labelling, streptavidin enrichment, LC-MS/MS; details: 30 uM probe, 1 h, mouse liver pieces
# T4 construct: native, in intact mouse liver pieces
# T4 sequence (O54909 1-317): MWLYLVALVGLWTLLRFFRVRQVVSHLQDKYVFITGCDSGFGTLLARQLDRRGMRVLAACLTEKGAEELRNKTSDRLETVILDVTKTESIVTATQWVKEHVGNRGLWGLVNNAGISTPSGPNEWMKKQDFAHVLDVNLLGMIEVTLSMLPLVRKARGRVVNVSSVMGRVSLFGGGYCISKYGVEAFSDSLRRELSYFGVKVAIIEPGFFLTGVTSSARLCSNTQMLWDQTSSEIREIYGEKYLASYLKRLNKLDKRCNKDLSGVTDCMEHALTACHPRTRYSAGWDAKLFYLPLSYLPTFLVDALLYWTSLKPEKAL
# heme oxygenase 2 (HMOX2) = target: T5, heme oxygenase 2 (HMOX2) (Mus musculus, UniProt O70252); test: as above; details: 30 uM probe, 1 h, mouse liver pieces
# T5 construct: native, in intact mouse liver pieces
# T5 sequence (O70252 2-315): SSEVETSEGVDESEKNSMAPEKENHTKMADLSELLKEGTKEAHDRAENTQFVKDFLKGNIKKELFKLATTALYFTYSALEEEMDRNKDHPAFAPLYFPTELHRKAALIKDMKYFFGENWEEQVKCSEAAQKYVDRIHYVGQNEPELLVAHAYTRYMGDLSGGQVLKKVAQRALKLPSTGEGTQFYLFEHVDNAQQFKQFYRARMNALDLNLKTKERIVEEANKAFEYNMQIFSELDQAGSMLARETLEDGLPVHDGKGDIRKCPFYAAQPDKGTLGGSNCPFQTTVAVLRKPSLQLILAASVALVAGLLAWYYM
# [4] = target: T6, retinol dehydrogenase RDH7 (Mus musculus, UniProt O88451); test: as above; details: 30 uM probe, 1 h, mouse liver pieces
# T6 construct: native, in intact mouse liver pieces
# T6 sequence (O88451 1-316): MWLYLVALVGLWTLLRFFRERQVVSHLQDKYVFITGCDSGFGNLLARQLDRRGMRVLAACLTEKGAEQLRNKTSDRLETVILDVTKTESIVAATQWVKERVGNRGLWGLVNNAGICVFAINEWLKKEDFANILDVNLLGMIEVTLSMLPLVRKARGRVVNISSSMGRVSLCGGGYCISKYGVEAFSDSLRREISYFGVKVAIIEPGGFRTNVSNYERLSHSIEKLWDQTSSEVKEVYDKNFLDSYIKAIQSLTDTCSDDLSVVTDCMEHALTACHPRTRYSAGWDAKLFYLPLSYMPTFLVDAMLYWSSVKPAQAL
structure (smiles),measurement,setting,value
"[N-]=[N+]=NCCCCCCCCCCNC(=O)c1ccc([I+]c2ccccc2)cc1 [3aa, diphenyliodonium probe 3aa]","activity-based labelling, in-gel fluorescence",[1],led to the labeling of several of the tested oxidoreductases
same,"covalent labelling, streptavidin enrichment, LC-MS/MS",[2],"cytochrome P450 monooxygenases (CYP3A25, CYP27A1)"
same,"activity-based labelling, in-gel fluorescence",EUOX (eugenol oxidase),led to the labeling of several of the tested oxidoreductases
same,"covalent labelling, streptavidin enrichment, LC-MS/MS",[3],RDH7 and RDH16 were found to be labeled by probe 3aa very well
same,"covalent labelling, streptavidin enrichment, LC-MS/MS",heme oxygenase 2 (HMOX2),"HMOX2 was significantly enriched by diaryliodonium probes 3aa, 3ca, and 3da"
same,"covalent labelling, streptavidin enrichment, LC-MS/MS",[4],RDH7 and RDH16 were found to be labeled by probe 3aa very well
